Where “and” joins values, the source holds several entries; their conditions need not be identical. Identical values can stand only once. Like-named read-outs stand apart in the source and are kept apart here.
Key:
[1] = test system: Phaeodactylum tricornutum; assay: Microplate assay: growth (absorbance 680 nm) and intracellular lipids (Nile Red fluorescence); type: cell-based; details: for increase in lipid levels: higher concentrations
Experimental: (§1) Stock cultures were aerated by stirring with bubbling air (homemade manifold with Petco air pump, 2-4% CO2) or by orbital shaking (Thermo Scientific MAXQ 2000) at a constant speed of 150 rpm at 22±3° C. with a 16:8 hour light/dark cycle. Stocks were kept at stationary phase for use. Algae were prepared as dictated by culture center.
(§2) Compounds were selected based on reported biological activity in non-microalgae organisms. To ensure that compounds retained their quality, they were stored under advised conditions after purchasing from the manufacturer. Solutions of all assay compounds were prepared as 10 mM stock solutions by dissolving in DMSO in 2-dram amber vials and then stored in darkness −20° C. 96-well PCR plates were used to create a stock plate layout that was then transferred to the algae microplates. A plate map was used to distribute each compound to a well based on molecule name, collection number, and CAS number. For 20 μM and 200 nM assay plates, 10 mM compound stock in DMSO was diluted into plate maps of 5 mM and 50 μM assay stocks, respectively.
(§3) All materials for assay experiments were autoclaved before each use to maintain axenic algae cultures. Algae species were checked for homogeneity using a TS-100 light microscope (Nikon, Japan). […] Diluted stock solutions were made immediately prior to use for consistency and optimal plate growth. Cell density was measured on a Thermo Scientific Genesys 10S Vis Spectrophotometer (ThermoFisher, San Jose), using a 1 mL cuvette at 680 nm.
(§4) Plates were originally run in triplicate, before replicates were increased to quadruplicate, along with a separate control plate to compare growth. Due to extensive evaporation in exterior wells over time, our unique algae plate layout was designed to use the 60 interior wells out of 96 wells for the experiment. The 36 outer wells were filled with Millipore water and media to prevent evaporation and edge effects in the inner algae wells, as well as serve as blanks. The 60 wells with algae contained a total volume of 251 μL (100 μL of media+DMSO compound stock +150 μL dilute algae stock). For 20 μM and 200 nM assay plates, 10 mM compound stock in DMSO is diluted into plate maps of 5 mM and 50 μM assay stocks, respectively. […] Plates were parafilmed during growth to limit the amount of evaporation that can occur. Plates were numbered, and numerically ordered to ensure they got the same shaker space.
(§5) The shakers are kept at a constant shaking of 150 rpm. Ambient temperature is 22±3° C.

[2] = test system: Phaeodactylum tricornutum; assay: 500 mL batch culture: growth, dry weight and lipid extract (gravimetric); type: cell-based; details: P. tricornutum, 500 mL culture, 76 pM
[3] = test system: Nannochloropsis salina
[4] = test system: Nannochloris sp.; assay: Microplate assay: growth (absorbance 680 nm) and intracellular lipids (Nile Red fluorescence); type: cell-based
Experimental: as §1, §2, §3, §4, §5

[5] = test system: Nannochloropsis salina; assay: 500 mL batch culture: growth, dry weight and lipid extract (gravimetric); type: cell-based; details: N. salina, 500 mL culture, 40 nM
[6] = test system: Nannochloropsis oculata; assay: as above; type: cell-based
Experimental: (§6) Batch cultures were grown in 500 mL Pyrex media bottles with stirring and air bubbling (homemade manifold with Petco air pump, 2-4% CO2). Incoming air was sterile filtered by Polyvent 4 disposable filters (Whatman, Kent, UK). […] To minimize bacterial contamination, all equipment and materials were autoclaved and media was added to flask in a Purifier Vertical Clean bench (Labconco, Kansas City, Mo.). […] The amount of DMSO is standardized for all experiments to 0.4%.
(§7) For all compound cultures, the 2 mL DMSO stock solution was added to media (without algae) first and mixed well. Control cultures were grown without DMSO. DMSO controls consisted of 0.04-1.0% DMSO. After the addition of algae and media, the container was plugged with a bug stopper vented closure cap and mixed thoroughly. Absorbance is measured immediately for Day 0 analysis. Afterward, absorbance was measured every 1-2 days with a cuvette (1 mL volume) on the Thermo Scientific Genesys 10S V is Spectrophotometer (ThermoFisher, San Jose) at 680 nm.
(§8) Batch cultures were also repeated in triplicate and compared to a control culture grown at the same time. Algae were harvested and lipids were extracted for gravimetric analysis.
(§9) The nonpolar algal extracts were harvested from 500 mL cultures when indicated on growth curves, a minimum of 3 days into stationary phase.
(§10) Cell density was monitored by measuring absorbance at 680 nm every 1-2 days.
(§11) 500-mL cultures were harvested 6 days into stationary phase based on absorbance values. Cells were concentrated by centrifugation and lyophilization to remove water. Nonpolar lipids were extracted by sonication and solvent (chloroform-methanol and PBS buffer). […] Changes in lipid levels for batch cultures were determined by crude lipid extract mass.

[7] = test system: Nannochloris sp.; assay: as above; type: cell-based; details: for Lipid productivity / Change in Lipids / Specific Growth Rate: Nannochloris sp., 500 mL culture; for Change in Lipids: gravimetric, relative to averaged control without DMSO; for Specific Growth Rate: mid-exponential growth phase
Experimental: as §6, §7, §8, §9, §10, §11

[8] = test system: Nannochloropsis oculata; assay: Lipid composition of batch culture extracts (fatty acid saturation / PUFA by 1H NMR, MALDI-TOF, GC/MS); type: cell-based
[9] = test system: microalgae; assay: 500 mL batch culture (growth, gravimetric lipids), algae strain not stated; type: cell-based; details: 500 mL batch cultures (Table 30)
[10] = test system: Nannochloropsis oculata; details: for % Lipid increase based on Nile red fluorescence intensity / % Increase based on Nile Red Fluorescence Intensity: N. oculata; for increase in lipid levels (Nile Red): lower concentrations, >0.040 nM
Experimental: as §1, §2, §3, §4, §5

[11] = dried lipid extract per dry biomass
[12] = gravimetric, relative to averaged control without DMSO
[13] = 500 mL batch cultures, gravimetric (Table 30)
[14] = 40 μM, initial microplate screen, relative to control

## Cc1cc2c(C(C)C)c(O)c(O)c(C=O)c2c(O)c1-c1c(C)cc2c(C(C)C)c(O)c(O)c(C=O)c2c1O [Gossypol, 2,2′-bis-(Formyl-1,6,7-trihydroxy-5-isopropyl-3-methylnaphthalene)]
[1]; 0.0757 nM, DMSO delivery
  increase in lipid production: > 250%
[1]; 0.0757 nM, dose-response microplate screen
  Nile Red percent increase: 111%
[1]; 0.0252-165.6 nM
  % increase (lipid production): 5-283%
[1]; DMSO delivery
  optimal effective concentration (lipid production): 0.0757 nM
[2]
  Lipid productivity: 5.6 ± 1.9 mgL^−1day^−1
[2]; [11]
  Lipid content: 24.4 ± 2.7 % w/w
[2]; [12]
  Change in Lipids: 27%
[2]; mid-exponential growth phase
  Specific Growth Rate: 0.21 ± 0.05 day⁻¹
[3]; 0.0757-6.13 nM (H2O)
  % increase (lipid production): 1-27(H2O) %
[3]; 0.0757-55.2 nM, DMSO delivery
  % increase (lipid production): 8-81%
[3]; N. salina, 6.13 nM, DMSO, t=day 0
  % Lipid increase based on Nile red fluorescence intensity: 103%
[3]; N. salina, 6.13 nM, DMSO delivery, added t=day 0
  % Increase based on Nile Red Fluorescence Intensity: 103%
[3]; lipoxygenase inhibitor microplate screen
  optimal effective concentration (lipid production): 6 nM

## CCN(CC)CCCC(C)Nc1c2ccc(Cl)cc2nc2ccc(OC)cc12.Cl.Cl (stereo not drawn) [Quinacrine, 6-Chloro-9-(4-diethylamino-1-methylbutyl-amino)-2-methoxyacridine dihydrochloride]
[4]
  % Increase based on Nile Red Fluorescence Intensity: 135%
[4]; Nannochloris sp., 49 nM, (water), t=day 0
  % Lipid increase based on Nile red fluorescence intensity: 136%
[4]; Nannochloris sp., 49 nM, dissolved in water, added t=day 0
  % Increase based on Nile Red Fluorescence Intensity: 136%
[4]; in water, dose-response microplate screening
  increase in intracellular lipids compared to the control (Nile red): more than 100%
[5]
  Lipid productivity: 4.5 ± 1.0 mgL^−1day^−1
[5]; [11]
  Lipid content: 26.5 ± 3.9 % w/w
[5]; [12]
  Change in Lipids: 6%
[5]; mid-exponential growth phase
  Specific Growth Rate: 0.25 ± 0.02 day⁻¹
[6]; [13]
  increase in lipid levels: 51%
[6]; N. oculata, 500 mL culture, 400 nM
  Lipid productivity: 5.2 ± 0.6 mgL^−1day^−1
[6]; N. oculata, 500 mL culture, 400 nM, gravimetric, relative to averaged control without DMSO
  Change in Lipids: 51%
[6]; N. oculata, 500 mL culture, 400 nM, mid-exponential growth phase
  Specific Growth Rate: 0.18 ± 0.04 day⁻¹
[7]; [13]
  increase in lipid levels: 31%
[7]; 40 nM
  Lipid productivity: 4.2 ± 1.1 mgL^−1day^−1
  Change in Lipids: 31%
  Specific Growth Rate: 0.18 ± 0.01 day⁻¹
[8]; 4 nM, 1H NMR, Normal 24
  SFAs (% of total lipids): 53 % of total lipids
[8]; 4 nM, 1H NMR, Normal 37
  n3 PUFAs (% of UFAs): 45 % of UFAs
[8]; 4 nM, 1H NMR, Normal 63
  All other PUFAs and MUFAs (% of UFAs): 55 % of UFAs
[8]; 4 nM, 1H NMR, Normal 76
  UFAs (% of total lipids): 47 % of total lipids
[8]; N. oculata, 400 nM, n=1, Normal 0 ± 1
  SFAs (%): 3%
[8]; N. oculata, 400 nM, n=1, Normal 4 ± 7
  MUFAs (%): 12%
[8]; N. oculata, 400 nM, n=1, Normal 28 ± 4
  n3 PUFAs (%): 17%
[8]; N. oculata, 400 nM, n=1, Normal 96 ± 7
  PUFAs (%): 76%
[9]
  effect on growth and lipid levels: positive increases in growth and lipid levels
[3]; 55 nM, dose-response microplate screen
  Nile Red percent increase: 103%
[10]; 244 nM, DMSO, t=day 0
  % Lipid increase based on Nile red fluorescence intensity: 106%
[10]; 61 pM, DMSO delivery, added t=day 0
  % Increase based on Nile Red Fluorescence Intensity: 100%
[10]; 244 pM, DMSO delivery, added t=day 0
  % Increase based on Nile Red Fluorescence Intensity: 106%
[10]; 976 pM, DMSO delivery, added t=day 0
  % Increase based on Nile Red Fluorescence Intensity: 93%
[10]; 4 nM, DMSO delivery, added t=day 0
  % Increase based on Nile Red Fluorescence Intensity: 75%
[10]; 15.6 nM, DMSO delivery, added t=day 0
  % Increase based on Nile Red Fluorescence Intensity: 66%

## Oc1ccc(-c2nc(-c3ccncc3)c(-c3ccc(F)cc3)[nH]2)cc1 [SB202190, 4-(4-Flurophenyl)-2-(4-hydroxyphenyl)-5-(4-pyridyl)-1H-imidazole]
[1]; [14]
  Absorbance (percent increase): +4.26%
  Nile Red percent increase: 112.4%
[1]; DMSO as delivery agent
  increase in lipid levels: 26%
[1]; P. tricornutum, compounds tested at 40 μM, initial screening, p<0.05
  Nile Red Fluorescence % Increase: 115.0%
[1]; water as delivery agent
  increase in lipid levels: 99%
[4]; 123-457 pM, dose-response microplate screen
  Nile Red percent increase: 103-175%
[4]; Nannochloris sp., compounds tested at 20 μM, initial screening, p<0.05
  Nile Red Fluorescence % Increase: 54.6% and 28.8%
[7]; 4 nM
  Lipid productivity: 3.0 ± 1.7 mgL^−1day^−1
  Change in Lipids: 3%
  Specific Growth Rate: 0.17 ± 0.02 day⁻¹
[7]; 4 nM, exponential addition
  Lipid productivity: 4.0 ± 1.6 mgL^−1day^−1
  Change in Lipids: 38%
  Specific Growth Rate: 0.15 ± 0.08 day⁻¹
[7]; batch culture, added during the exponential growth phase
  increase in lipid levels: 38%
[10]; 400 fM, added at exponential phase, t=day 7
  % Lipid increase based on Nile red fluorescence intensity: 95%
[10]; 400 fM, added during exponential phase
  % Increase based on Nile Red Fluorescence Intensity: 95%
[10]; compound added at t=day 0
  increase in lipid levels (Nile Red): 45%
[10]; compound added in exponential growth phase (Day 7)
  increase in lipid levels (Nile Red): 95%

From patent publication US8778643B2, “Methods for increasing lipid levels and producing triacylglycerols in algae” (priority 2012, dated 2014)
